Measured values from PubChem BioAssay AID1745844 (Carcinogenic Potency Database (CPDB), 2022).
Where “and” joins values, the source holds several entries; their conditions need not be identical. Equal values may be shown once. Calls of active or inactive are those of the source. No rule for the calls is given here.

System: rodent lifetime carcinogenesis bioassay, tumor incidence TD50
Experiment: chronic cancer bioassays in animals – CPDB, compiled studies (AID 1745844)
[1] = rat, strain Sprague-Dawley, females, in feed, site: mammary tissue, wider than the gland, lesion: malignant tumor, dosed 104 weeks, study length 104 weeks

CN(N=O)c1ccncc1
carcinogen call (rat, strain BD VI, females, by gavage, site: any site (literature study), lesion: benign tumor, dosed 101 weeks, study length 101 weeks): negative (inactive) | TD50 (rat, strain BD VI, females, by gavage, site: any site (literature study), lesion: malignant tumor, dosed 101 weeks, study length 101 weeks): 26.8 mg/kg/day (inactive) | carcinogen call (rat, strain BD VI, females, by gavage, site: any site (literature study), lesion: several types, types named in the paper, dosed 101 weeks, study length 101 weeks): negative (inactive) | carcinogen call (rat, strain BD VI, females, by gavage, site: liver, lesion: several types, types named in the paper, dosed 101 weeks, study length 101 weeks): negative (inactive)

Nc1ccc(N)cc1
TD50 (mouse, strain B6C3F1, females, in feed, site: any site (literature study), lesion: several types, types named in the paper, dosed 103 weeks, study length 104 weeks): 1500 mg/kg/day (inactive) | TD50 (mouse, strain B6C3F1, females, in feed, site: liver, lesion: hepatocellular adenoma + hepatocellular carcinoma + neoplastic nodule, dosed 103 weeks, study length 104 weeks): 1370 mg/kg/day | TD50 (mouse, strain B6C3F1, females, in feed, site: lung, lesion: alveolar/bronchiolar adenoma + alveolar/bronchiolar carcinoma, dosed 103 weeks, study length 104 weeks): 1390 mg/kg/day | carcinogen call (mouse, strain B6C3F1, males, in feed, site: any site (literature study), lesion: several types, types named in the paper, dosed 103 weeks, study length 104 weeks): negative (inactive) | TD50 (rat, strain Fischer 344, females, in feed, site: adrenal gland, lesion: pheochromocytoma, dosed 80 weeks, study length 80 weeks): 4280 mg/kg/day (inactive) | TD50 (rat, strain Fischer 344, females, in feed, site: any site (literature study), lesion: several types, types named in the paper, dosed 103 weeks, study length 116 weeks): 247 mg/kg/day (inactive) | carcinogen call (rat, strain Fischer 344, males, in feed, site: adrenal gland, lesion: pheochromocytoma, dosed 80 weeks, study length 80 weeks): negative (inactive) | carcinogen call (rat, strain Fischer 344, males, in feed, site: any site (literature study), lesion: several types, types named in the paper, dosed 103 weeks, study length 116 weeks): negative (inactive) | TD50 (rat, strain Fischer 344, males, in feed, site: liver, lesion: hepatocellular adenoma + hepatocellular carcinoma + neoplastic nodule, dosed 103 weeks, study length 116 weeks): 2230 mg/kg/day

ClCC(Cl)(Cl)Cl
TD50 (mouse, strain B6C3F1, females, by gavage, site: any site (literature study), lesion: several types, types named in the paper, dosed 103 weeks, study length 104 weeks): 110 mg/kg/day | TD50 (mouse, strain B6C3F1, females, by gavage, site: liver, lesion: hepatocellular adenoma + hepatocellular carcinoma + neoplastic nodule, dosed 103 weeks, study length 104 weeks): 175 mg/kg/day | TD50 (mouse, strain B6C3F1, females, by gavage, site: liver, lesion: hepatocellular adenoma + hepatocellular carcinoma, dosed 103 weeks, study length 104 weeks): 175 mg/kg/day | TD50 (mouse, strain B6C3F1, females, by gavage, site: liver, lesion: hepatocellular adenoma, dosed 103 weeks, study length 104 weeks): 254 mg/kg/day | TD50 (mouse, strain B6C3F1, females, by gavage, site: liver, lesion: hepatocellular carcinoma, dosed 103 weeks, study length 104 weeks): 640 mg/kg/day | TD50 (mouse, strain B6C3F1, females, by gavage, site: lung, lesion: alveolar/bronchiolar adenoma + alveolar/bronchiolar carcinoma, dosed 103 weeks, study length 104 weeks): 1820 mg/kg/day | TD50 (mouse, strain B6C3F1, males, by gavage, site: any site (literature study), lesion: several types, types named in the paper, dosed 103 weeks, study length 104 weeks): 97.9 mg/kg/day | TD50 (mouse, strain B6C3F1, males, by gavage, site: liver, lesion: hepatocellular adenoma + hepatocellular carcinoma + neoplastic nodule, dosed 103 weeks, study length 104 weeks): 124 mg/kg/day | TD50 (mouse, strain B6C3F1, males, by gavage, site: liver, lesion: hepatocellular adenoma + hepatocellular carcinoma, dosed 103 weeks, study length 104 weeks): 124 mg/kg/day | TD50 (mouse, strain B6C3F1, males, by gavage, site: liver, lesion: hepatocellular adenoma, dosed 103 weeks, study length 104 weeks): 190 mg/kg/day | TD50 (mouse, strain B6C3F1, males, by gavage, site: lung, lesion: alveolar/bronchiolar adenoma + alveolar/bronchiolar carcinoma, dosed 103 weeks, study length 104 weeks): 1330 mg/kg/day | TD50 (rat, strain Fischer 344, females, by gavage, site: liver, lesion: hepatocellular adenoma + hepatocellular carcinoma + neoplastic nodule, dosed 103 weeks, study length 104 weeks): 3980 mg/kg/day | TD50 (rat, strain Fischer 344, females, by gavage, site: mammary gland, lesion: fibroadenoma, dosed 103 weeks, study length 104 weeks): 170 mg/kg/day (inactive) | TD50 (rat, strain Fischer 344, males, by gavage, site: any site (literature study), lesion: several types, types named in the paper, dosed 103 weeks, study length 104 weeks): 464 mg/kg/day | TD50 (rat, strain Fischer 344, males, by gavage, site: liver, lesion: hepatocellular adenoma + hepatocellular carcinoma + neoplastic nodule, dosed 103 weeks, study length 104 weeks): 1130 mg/kg/day | TD50 (rat, strain Fischer 344, males, by gavage, site: multiple organs + peritoneum + tunica vaginalis, lesion: mesothelioma, malignant + mesothelioma, NOS, dosed 103 weeks, study length 104 weeks): 842 mg/kg/day (inactive)

O=Nc1ccc(NO)cc1
TD50 (mouse, strain B6C3F1, females, in feed, site: any site (literature study), lesion: several types, types named in the paper, dosed 104 weeks, study length 105 weeks): 6710 mg/kg/day (inactive) | TD50 (mouse, strain B6C3F1, females, in feed, site: liver, lesion: hepatocellular adenoma + hepatocellular carcinoma + neoplastic nodule, dosed 104 weeks, study length 105 weeks): 656 mg/kg/day | TD50 (mouse, strain B6C3F1, females, in feed, site: lung, lesion: alveolar/bronchiolar adenoma + alveolar/bronchiolar carcinoma, dosed 104 weeks, study length 105 weeks): 6660 mg/kg/day | TD50 (mouse, strain B6C3F1, males, in feed, site: any site (literature study), lesion: several types, types named in the paper, dosed 104 weeks, study length 105 weeks): 936 mg/kg/day (inactive) | TD50 (mouse, strain B6C3F1, males, in feed, site: liver, lesion: hepatocellular adenoma + hepatocellular carcinoma + neoplastic nodule, dosed 104 weeks, study length 105 weeks): 1.23e+06 mg/kg/day | TD50 (rat, strain Fischer 344, females, in feed, site: urinary bladder, lesion: squamous-cell carcinoma + transitional-cell carcinoma + transitional-cell papilloma, dosed 104 weeks, study length 105 weeks): 106 mg/kg/day | TD50 (rat, strain Fischer 344, females, in feed, site: urinary bladder, lesion: transitional-cell carcinoma, dosed 104 weeks, study length 105 weeks): 182 mg/kg/day | TD50 (rat, strain Fischer 344, males, in feed, site: any site (literature study), lesion: several types, types named in the paper, dosed 104 weeks, study length 105 weeks): 349 mg/kg/day (inactive) | TD50 (rat, strain Fischer 344, males, in feed, site: liver, lesion: hepatocellular adenoma + hepatocellular carcinoma + neoplastic nodule, dosed 104 weeks, study length 105 weeks): 1130 mg/kg/day

CC(C)C(C(=O)OC(C#N)c1cccc(Oc2ccccc2)c1)c1ccc(Cl)cc1 (stereo unspecified)
TD50 (mouse, strain B6C3F1, females, in feed, site: any site (literature study), lesion: one or several types, types not named, dosed 104 weeks, study length 104 weeks): 173 mg/kg/day (inactive) | carcinogen call (mouse, strain B6C3F1, females, in feed, site: liver, lesion: hepatocellular adenoma, dosed 104 weeks, study length 104 weeks): negative (inactive) | carcinogen call (mouse, strain B6C3F1, females, in feed, site: liver, lesion: hepatocellular carcinoma, dosed 104 weeks, study length 104 weeks): negative (inactive) | carcinogen call (mouse, strain B6C3F1, females, in feed, site: lung, lesion: bronchiolar adenoma, dosed 104 weeks, study length 104 weeks): negative (inactive) | carcinogen call (mouse, strain B6C3F1, females, in feed, site: lung, lesion: bronchogenic carcinoma, dosed 104 weeks, study length 104 weeks): negative (inactive) | TD50 (mouse, strain B6C3F1, males, in feed, site: any site (literature study), lesion: one or several types, types not named, dosed 104 weeks, study length 104 weeks): 251 mg/kg/day (inactive) | carcinogen call (mouse, strain B6C3F1, males, in feed, site: liver, lesion: hepatocellular adenoma, dosed 104 weeks, study length 104 weeks): negative (inactive) | carcinogen call (mouse, strain B6C3F1, males, in feed, site: liver, lesion: hepatocellular carcinoma, dosed 104 weeks, study length 104 weeks): negative (inactive) | carcinogen call (mouse, strain B6C3F1, males, in feed, site: lung, lesion: bronchiolar adenoma, dosed 104 weeks, study length 104 weeks): negative (inactive) | carcinogen call (mouse, strain B6C3F1, males, in feed, site: lung, lesion: bronchogenic carcinoma, dosed 104 weeks, study length 104 weeks): negative (inactive) | carcinogen call (mouse, strain B6C3F1, males, in feed, site: skin, lesion: fibrosarcoma, dosed 104 weeks, study length 104 weeks): negative (inactive) | TD50 (mouse, strain C57BL/6, females, by gavage, site: all sites, lesion: lymphoma, dosed 104 weeks, study length 114 weeks): 384 mg/kg/day (inactive) | TD50 (mouse, strain C57BL/6, females, by gavage, site: any site (literature study), lesion: one or several types, types not named, dosed 104 weeks, study length 114 weeks): 435 mg/kg/day (inactive) | carcinogen call (mouse, strain C57BL/6, females, by gavage, site: liver, lesion: liver-cell tumor, dosed 104 weeks, study length 114 weeks): negative (inactive) | carcinogen call (mouse, strain C57BL/6, females, by gavage, site: lung, lesion: adenoma, dosed 104 weeks, study length 114 weeks): negative (inactive) | TD50 (mouse, strain C57BL/6, males, by gavage, site: all sites, lesion: lymphoma, dosed 104 weeks, study length 114 weeks): 659 mg/kg/day (inactive) | carcinogen call (mouse, strain C57BL/6, males, by gavage, site: any site (literature study), lesion: one or several types, types not named, dosed 104 weeks, study length 114 weeks): negative (inactive) | TD50 (mouse, strain C57BL/6, males, by gavage, site: liver, lesion: liver-cell tumor, dosed 104 weeks, study length 114 weeks): 328 mg/kg/day (inactive) | carcinogen call (mouse, strain C57BL/6, males, by gavage, site: lung, lesion: adenoma, dosed 104 weeks, study length 114 weeks): negative (inactive) | carcinogen call (rat, strain Sprague-Dawley, females, in feed, site: liver, lesion: round-cell sarcoma, dosed 104 weeks, study length 104 weeks): negative (inactive) | TD50 (rat, strain Sprague-Dawley, females, in feed, site: mammary gland, lesion: fibroadenoma, dosed 104 weeks, study length 104 weeks): 58 mg/kg/day (inactive) | TD50 (rat, strain Sprague-Dawley, females, in feed, site: mammary gland, lesion: fibroma, dosed 104 weeks, study length 104 weeks): 2.55 mg/kg/day (inactive) | TD50 (rat, strain Sprague-Dawley, females, in feed, site: mammary tissue, wider than the gland, lesion: benign tumor, dosed 104 weeks, study length 104 weeks): 43.7 mg/kg/day (inactive) and 247 mg/kg/day (inactive) | TD50 [1]: 150 mg/kg/day (inactive) | carcinogen call [1]: negative (inactive) | TD50 (rat, strain Sprague-Dawley, males, in feed, site: subcutaneous tissue, lesion: fibrosarcoma, dosed 104 weeks, study length 104 weeks): 5.04 mg/kg/day (inactive) | TD50 (rat, strain Sprague-Dawley, males, in feed, site: subcutaneous tissue, lesion: spindle-cell sarcoma, dosed 104 weeks, study length 104 weeks): 266 mg/kg/day (inactive)

CCCCCCCC(=O)OCC(COC(=O)CCCCCCC)OC(=O)CCCCCCC
TD50 (rat, strain Fischer 344, males, by gavage, site: any site (literature study), lesion: several types, types named in the paper, dosed 104 weeks, study length 104 weeks): 69900 mg/kg/day | TD50 (rat, strain Fischer 344, males, by gavage, site: forestomach, lesion: squamous-cell papilloma, dosed 104 weeks, study length 104 weeks): 15700 mg/kg/day | TD50 (rat, strain Fischer 344, males, by gavage, site: liver, lesion: hepatocellular adenoma + hepatoblastoma + hepatocellular carcinoma, dosed 104 weeks, study length 104 weeks): 37100 mg/kg/day | TD50 (rat, strain Fischer 344, males, by gavage, site: liver, lesion: hepatocellular adenoma, dosed 104 weeks, study length 104 weeks): 37100 mg/kg/day | TD50 (rat, strain Fischer 344, males, by gavage, site: pancreas, lesion: acinar-cell adenoma, dosed 104 weeks, study length 104 weeks): 5490 mg/kg/day (inactive)

Cc1cccc2ccccc12
TD50 (mouse, strain B6C3F1, females, in feed, site: liver, lesion: hepatocellular adenoma, dosed 81 weeks, study length 81 weeks): 979 mg/kg/day | TD50 (mouse, strain B6C3F1, females, in feed, site: liver, lesion: hepatocellular carcinoma, dosed 81 weeks, study length 81 weeks): 6040 mg/kg/day | TD50 (mouse, strain B6C3F1, males, in feed, site: any site (literature study), lesion: one or several types, types not named, dosed 81 weeks, study length 81 weeks): 2260 mg/kg/day | TD50 (mouse, strain B6C3F1, males, in feed, site: lung, lesion: alveolar/bronchiolar adenoma, dosed 81 weeks, study length 81 weeks): 244 mg/kg/day | TD50 (mouse, strain B6C3F1, males, in feed, site: lung, lesion: alveolar/bronchiolar carcinoma, dosed 81 weeks, study length 81 weeks): 1830 mg/kg/day | TD50 (mouse, strain B6C3F1, males, in feed, site: lung, lesion: several types, types named in the paper, dosed 81 weeks, study length 81 weeks): 201 mg/kg/day
